From US8916212B2, “Skin whitening composition containing chia seed extract” (Access Business Group International LLC, priority 2011, dated 2014)

Experiments:
[1] = test system: melan-a cells; test: WST-1 assay for cell viability and cytotoxicity; format: cell-based, murine; conditions: at the concentrations tested
Description: (§1) Melan-a murine melanocytes (Wellcome Trust Functional Genomics Cell Bank, St. George Hospital, London, UK) were plated one day prior to treatment in 24 well plates at a density of 5×10^4 cells per well in 1 ml of melan-a cell medium (RPMI-1640, 10% Fetal Bovine Serum (FBS), 1% Penicillin/Streptomycin, 100 μM β-mercaptoethanol, 2 mM L-Glutamine and 200 nM Phorbol 12-myristate 13-acetate) in a 10% CO2 incubator maintained at 37° C. After seeding the cells for 24 hours in triplicate, cells were treated as indicated below. After two days of treatment, the culture media was changed and fresh samples were added and incubated overnight. The cells were initially tested for cell viability and cytoxicity using the WST-1 assay (Roche Applied Science). Following the WST-1 assay, the cells were washed in IX PBS and harvested in extraction buffer for melanin isolation and quantification.

[2] = test system: Melan-a murine melanocytes; test: Melanin inhibition assay; format: cell-based; conditions: melan-a cells; for reduction in melanin content: 100 μg/ml in 0.36% pentylene glycol:0.036% DMSO, FIG. 3
Description: as §1
Cells from each well of the 24 well plate were harvested in cell lysis buffer (1% Triton X 100, 50 mM Tris, 2 mM EDTA, 150 mM NaCl, pH 7.5 supplemented with a complete protease inhibitor cocktail). Cell lysates were centrifuged at 20,000 g for 10 min at 4° C. Protein levels in the supernatant were quantified using a Pierce BCA Protein assay kit (Thermo Scientific Corp). Melanin-containing precipitates were washed in 100 μl of ethanol:ether (1:1) for 10 min at room temperature. The ethanol:ether solution was discarded and the melanin-pellets were dissolved in 200 μl of 2N NaOH in 20% DMSO solution and incubated at 70° C. for 60 min. The resulting melanin extract was analyzed by measuring absorbance at 490 nm. The melanin content in each sample was evaluated by normalizing each sample to the total amount of protein.

CCCCC/C=C\C/C=C\CCCCCCCC(=O)O [linoleic acid]
cytotoxicity to melan-a cells (WST-1) [1]: not cytotoxic
reduction in melanin content [2]: comparatively minor reductions

NC(=S)Nc1ccccc1 [phenylthiourea]
reduction of melanin content ([2]; positive control, FIG. 4 experiment): 70%

CC/C=C\C/C=C\C/C=C\CCCCCCCC(=O)O [α-linolenic acid]
cytotoxicity to melan-a cells (WST-1) [1]: not cytotoxic
reduction in melanin content [2]: comparatively minor reductions
